{"source": "paper PMC4486710", "about": "(Parasites & Vectors, 2015)", "molecules": {"B1": {"name": "TcCAT1.1 (Trypanosoma cruzi) (protein)", "chain": "MDTESGNIAPGNDPVVVPELGSENGSGVKWRRTSSGMGALRCFTNIIPYGGLLSTTFNLASATLGGGVISLAAGFQMSGVAFSIILLVLVTVCTVYSVGLMMQAVEMTGYNSYAELSKKLFGRGWDHFTVVLTWLFTFGTCVGYVIAIGRLLEPVLSDPSLPEFWRSEAGNRAVTSAIWFVGMFSLSLPKEINSLRYASAVGVICIYYFIACIVVHSVQHGFRGGKLRDDVAMFKSGNGAIEGLSIFMFSYLCHMNCFSIFGEMRKPSARRMTLHTACSMALCCIAYIVAGFFGYADFGDEVTDTVLVFYDVRRDVLMAIAYAGIVFKLCVGFALCMQPARDCCYYIIGWDVATIPAWKNCLFCGVMALCALLLGLFIPVLNTVFGLLGSFCGGTLGFCLPALYRMYCGNWSLGTVGIVNYVCTYLLLMAGVVAVVFGTGASLYGVVR", "notes": "full-length ORF, untagged, pYES2, expressed in S. cerevisiae HSC100-3C (can1 gap1 lyp1); 10 predicted transmembrane helices"}}}
{"molecular_target": "T1, TcCAT1.1 (Trypanosoma cruzi, UniProt A0A0H4FPU8)", "T1 construct": "gene C3747_66g20; full-length ORF, untagged, pYES2, expressed in S. cerevisiae HSC100-3C (can1 gap1 lyp1); 10 predicted transmembrane helices", "T1 sequence (A0A0H4FPU8 1-448)": "B1 chain", "assay": "competition of [3H]-arginine uptake in transformed S. cerevisiae", "type": "cell-based", "conditions": "1000 µM; 10 µM [3H]-arginine, 1 mM competitor, 30 min, room temperature", "from_the_text": "(§1) competition of [3H]-arginine uptake in transformed S. cerevisiae on TcCAT1.1", "units": {"[^3H]-Arginine uptake(%)": "%"}}
{"molecule": "C[C@H](N)C(=O)O", "note": "[alanine]", "[^3H]-Arginine uptake(%)": "67.9 ± 2.6"}
{"molecule": "NC(=O)C[C@H](N)C(=O)O", "note": "[asparagine]", "[^3H]-Arginine uptake(%)": "78.0 ± 6.1"}
{"molecule": "NC(=O)CC[C@H](N)C(=O)O", "note": "[glutamine]", "[^3H]-Arginine uptake(%)": "74.2 ± 25.6"}
{"molecule": "N[C@@H](Cc1cnc[nH]1)C(=O)O", "note": "[histidine]", "[^3H]-Arginine uptake(%)": "67.3 ± 8.8"}
{"molecule": "N=C(N)NCCCC[C@H](N)C(=O)O", "note": "[homoarginine]", "[^3H]-Arginine uptake(%)": "65.5 ± 12.1"}
{"molecule": "CC(C)C[C@H](N)C(=O)O", "note": "[leucine]", "[^3H]-Arginine uptake(%)": "67.7 ± 16.2"}
{"molecule": "NCCCC[C@H](N)C(=O)O", "note": "[lysine]", "[^3H]-Arginine uptake(%)": "78.0 ± 26.7"}
{"molecule": "O=C(O)[C@@H]1CCCN1", "note": "[proline]", "[^3H]-Arginine uptake(%)": "72.3 ± 12.1"}
{"molecule": "NCCCNCCCCNCCCN", "note": "[spermine]", "[^3H]-Arginine uptake(%)": "65.0 ± 6.6"}
{"molecular_target": "T1, TcCAT1.1", "assay": "competition of [3H]-arginine uptake in transformed S. cerevisiae", "type": "cell-based", "conditions": "1000 µM; 10 µM [3H]-arginine, 1 mM competitor, 30 min, room temperature; possible substrate", "from_the_text": "as §1", "units": {"[^3H]-Arginine uptake(%)": "%"}}
{"molecule": "N=C(N)NOCC[C@H](N)C(=O)O", "note": "[canavanine]", "[^3H]-Arginine uptake(%)": "28.9 ± 6.3"}
{"substrate": "N=C(N)NCCC[C@H](N)C(=O)O", "assay": "radiolabelled uptake in transformed S. cerevisiae, Michaelis-Menten fit", "type": "cell-based, Trypanosoma cruzi", "conditions": "labelled compound; glucose-repressed background subtracted; three trials", "units": {"Km": "µM"}, "text": "radiolabelled uptake in transformed S. cerevisiae, Michaelis-Menten fit on TcCAT1.1"}
{"molecule": "B1", "Km": "85 ± 40"}
